Consider 16 molecules from US20240317727A1 (Duke University, priority 2018, published 2024).

Molecules are shown by their SMILES.

Series [1] addresses T1, purified recombinant human HSF1 (HSF1 DNA binding domain) (Homo sapiens, UniProt Q00613).
T1 sequence (Q00613 15-120): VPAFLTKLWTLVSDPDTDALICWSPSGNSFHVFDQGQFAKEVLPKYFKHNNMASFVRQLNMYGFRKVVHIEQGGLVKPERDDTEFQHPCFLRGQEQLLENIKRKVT
Nature of the series: Melting temperature of HSF1 DBD with HSF1 degrader compounds (Sypro orange). The settings on record: 12.5 micromolar compound, 5 micromolar HSF1 DBD, compared to DMSO; read-out: ΔTm (° C.). As for the experimental part:
The melting temperature (ΔTm) for purified recombinant human HSF1 (HSF1 DNA binding domain) was determined in the presence of HSF1 degrader compounds shown in Table 5 and compared to the solvent DMSO. Sypro orange dye was added to the HSF1 DBD (5 micromolar final concentration) in buffer, mixed and distributed to wells in 384 well microtiter plates. HSF1 degrader compound (12.5 micromolar) or DMSO solvent was added to three replicate wells per compound concentration, mixed and plates loaded into a Quant Studio thermnocycler and run on a temperature gradient from 25° C. to 85° C. with increments of 0.5° C. steps. Melting curves were obtained and analyzed using the ThermnoFisher Shift Software 1.4 fitted with a Boltzmann equation to determine the change in melting temperature of the protein in the presence of DMSO as compared to compound. The difference in the melting temperature under these two conditions was assigned as the change in melting temperature of ΔTm.

The subject of series [2] is C4-2 prostate cancer cells. The series can be described thus: C4-2 cell proliferation, Cell Titre Glo. In kind it is cell-based. The conditions noted are these: Homo sapiens, 48-hour period, 9-point dilution series, read-out: Cell Viability IC50. As for the experimental part:
Next, cell viability of C4-2 prostate cancer cells was determined. C4-2 prostate cancer cells were grown in RMPI-1640 (no L-glutamine, Gibco 21870076) supplemented with 10% fetal bovine […] (non-heat-inactivated, Cytiva Hyclone SH30071.03). […] A 9-point dilution series was used to assess the ability of each compound to inhibit the growth of C4-2 prostate cancer cells over a 48-hour period, as compared to negative control solvent, DMSO. Cell proliferation was measured by the Cell Titre Glo assay using 384 well microtiter plate reader to quantitate luminescence. The IC50 was determined from the values obtained.

The test system of series [3] is DNAJB1 equals Hsp40. The series can be described thus: HSF1 target gene transcript expression qPCR in C4-2 cells, Hsp40. The class given is cell-based. The conditions noted are these: Homo sapiens, 2 hours then SNX-2112 (100 nM) 5 hr, vs GAPDH and DMSO. As for the experimental part: (§1) Next, the change in heat shock protein gene expression in C4-2 prostate cancer cells was determined. C4-2 prostate cancer cells were grown in RMPI-1640 (no L-glutamine, Gibco 21870076) supplemented with 10% fetal bovine […] (non-heat-inactivated, Cytiva Hyclone SH30071.03). To quantitatively measure the inhibition of HSF1 activity in C4-2 prostate cancer cells, compounds or DMSO were added to triplicate C4-2 cell cultures for 2 hours. HSF1 activity was then stimulated with the Hsp90 inhibitor SNX-2112 (100 nM) for an additional 5 hr at 37° C. in the presence of HSF1 degrader compounds or DMSO. Total RNA was extracted, converted to cDNA and used in qPCR assays to quantify the change in HSF1 target gene transcript expression (HSPA4L equals Hsp70, HSPB1 equals Hsp27 and DNAJB1 equals Hsp40) as compared to GAPDH internal control gene, and then compared to DMSO negative control.
For orientation: In qPCR the cycle at which signal appears reflects the starting amount.

Series [4] deals with Hsp70. The series can be described thus: HSF1 target gene transcript expression qPCR in C4-2 cells, Hsp70. The class given is cell-based. The conditions noted are these: Homo sapiens, 2 hours then SNX-2112 (100 nM) 5 hr, vs GAPDH and DMSO. As for the experimental part: as §1
A short description of series [5]: Rat liver microsome stability. The class given is in vitro ADME. The settings on record: rat liver microsomes, 37° C., read-out: Microsome Stability T1/2. The procedure: Next, the microsome stability in rats was determined for select compounds from Table 5. Test compounds are incubated with rat liver microsomes supplemented with co-factors at 37° C. Typical conditions were a compound concentration of 1 μM and 5 sampling time-points (0, 5, 15, 30 and 45 minutes), in duplicate. At each time-point, the reactions were terminated by the addition of organic solvent. The samples were centrifuged and the parent compound concentration was evaluated by LC-MS/MS measurements. Control compounds were included with well-established stability when incubated with rat microsomes. Multiple time points were used to determine % parent compound remaining at each time point and to calculate the Tiu2 for each compound in rat liver microsomes. A higher T1/2 indicates increased compound stability in microsomes.
On the technique in general: Liver microsomes are a subcellular fraction often used to study metabolism.

Series [6] deals with T2, recombinant HSF1 DNA-binding domain (DBD) (Homo sapiens, UniProt Q00613).
T2 sequence (Q00613 15-120): T1 sequence (Q00613 15-120)
Nature of the series: Differential Scanning Fluorimetry (DSF), HSF1 DBD melting temperature. The conditions noted are these: for ΔTm at 25 µM: Table 1, 5 μM HSF1 DBD, 25PM Compound, positive = stabilizes, negative = destabilizes HSF1; for effect on melting temperature of HSF1: thermal denaturation profiling, FIG. 2. (In general: In DSF a fluorescence change marks the thermal transition of the protein.)

Series [7] deals with recombinant protein Hsc70 (Homo sapiens, UniProt P11142). The series can be described thus: Thermal denaturation of Hsc70 (selectivity). The settings on record: selectivity in binding, FIG. 2.
Sequence of recombinant protein Hsc70 (P11142 whole entry, species assumed): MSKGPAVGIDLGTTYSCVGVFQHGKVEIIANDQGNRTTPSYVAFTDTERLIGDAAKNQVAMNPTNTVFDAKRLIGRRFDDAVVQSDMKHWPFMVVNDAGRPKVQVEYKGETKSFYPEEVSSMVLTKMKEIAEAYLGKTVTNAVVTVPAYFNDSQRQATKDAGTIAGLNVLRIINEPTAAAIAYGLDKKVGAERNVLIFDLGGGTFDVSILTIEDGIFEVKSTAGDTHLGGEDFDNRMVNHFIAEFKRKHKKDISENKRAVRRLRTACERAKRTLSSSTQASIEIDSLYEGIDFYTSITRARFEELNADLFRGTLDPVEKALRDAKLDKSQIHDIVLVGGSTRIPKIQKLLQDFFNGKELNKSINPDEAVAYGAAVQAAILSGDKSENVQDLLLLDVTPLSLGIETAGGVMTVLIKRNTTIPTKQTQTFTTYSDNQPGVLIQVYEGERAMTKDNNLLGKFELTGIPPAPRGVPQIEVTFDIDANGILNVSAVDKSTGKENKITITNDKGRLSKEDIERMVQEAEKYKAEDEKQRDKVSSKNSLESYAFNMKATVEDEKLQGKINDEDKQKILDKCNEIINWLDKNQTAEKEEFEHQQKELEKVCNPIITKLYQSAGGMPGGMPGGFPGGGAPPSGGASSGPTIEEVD
For series [8], the system named is C4-2 malignant prostate cancer cells vs BPH-1 non-tumorigenic prostate cells. Nature of the series: AlamarBlue cell viability, C4-2 vs BPH-1. The class given is cell-based, human. The conditions noted are these: FIG. 6A; for viability of C4-2 compared to BPH-1: 96 hours, AlamarBlue assay; for potency compared to Compound 0017: inhibition of metastatic prostate cancer cell growth. As for the experimental part:
The cells were treated for 96 hours with the indicated concentrations of the compounds of the disclosure and cell viability was measured with the AlamarBlue assay. FIG. 6B illustrates the results of Compound 0017 used in a 7-week Maximal Tolerated Dose (MTD) study conducted in mice (3 mice identified as 118, 119 and 120). […] After sacrificing the mice on the last day of the administration, mouse liver and heart tissue was isolated, messenger RNA extracted and the transcript abundance of the HSF1 target gene, Hsp70, was evaluated by qRT-PCR relative to the internal RNA control, GAPDH. The results of the vehicle-treated versus Compound 0017-treated experiments were compared.
Based on the chemical structure of Compound 0017 and its activity, and of other HSF1-interacting chemicals identified in the screen, additional derivatives were designed, synthesized and evaluated for binding to HSF1 and preferential inhibition of metastatic prostate cancer cells (C4-2) versus benign prostate cells (BPH-1).

As to `N#Cc1ccc(NC(=O)Nc2ccc(Cl)c(S(=O)(=O)C(F)(F)F)c2)cc1C(F)(F)F` [Compound 257, 1-(4-chloro-3-((trifluoromethyl)sulfonyl)phenyl)-3-(4-cyano-3-(trifluoromethyl)phenyl)urea], in series [1], the ΔTm (as a rule, the shift of the melting midpoint relative to a reference) at 12.5 µM worked out at 1.62 °C. For the same molecule, the IC50 (as a rule, the midpoint of a concentration-inhibition curve) in series [2] is 2150 nM. Besides, the mrna remaining at 10 µM in series [3] was found to be 7%; in series [4], 20%. In series [5], the half-life at 1 μM worked out at 6.16 h.

For `N#Cc1ccc(NC(=O)Nc2ccc3nsnc3c2)cc1` [Compound 245, 1-(benzo[c][1,2,5]thiadiazol-5-yl)-3-(4-cyanophenyl)urea], the shift in melting temperature (ΔTm) at 12.5 µM in series [1] came out at 2.74 °C. In series [2], the IC50 was above 10000 nM. In addition, the mrna remaining at 10 µM in series [3] worked out at 39%; in series [4] it was 36%.

As for `N#Cc1ccc(NC(=O)Nc2ccc(Cl)c(C(F)(F)F)c2)cc1` [Compound 242, 1-(4-chloro-3-(trifluoromethyl)phenyl)-3-(4-cyanophenyl)urea], the ΔTm at 12.5 µM in series [1] turned out to be 2.62 °C. Besides, the IC50 in series [2] was 1980 nM. Moreover, the figures for the mrna remaining at 10 µM in series [3] and in series [4] were 71% and 55%, respectively. Also, the half-life at 1 μM in series [5] is 14.9 h.

`COc1cccc(-c2cnc(Nc3ccc(F)cc3)s2)c1` [Compound 0050]: in series [6], the ΔTm at 25 µM came to 2.93 °C and the “effect on melting temperature of HSF1” value is “stabilized the melting temperature of HSF1”. In series [7], the “effect on melting of unrelated protein Hsc70” value is reported as “did not affect the melting”.

For the molecule `N#Cc1ccc(NC(=O)Nc2ccc(Cl)c(S(=O)(=O)C(F)(F)F)c2)cc1` [Compound 243, 1-(4-chloro-3-((trifluoromethyl)sulfonyl)phenyl)-3-(4-cyanophenyl)urea], the ΔTm at 12.5 µM in series [1] was found to be 1.77 °C. In addition, the concentration for half-maximal inhibition (IC50) in series [2] is 1760 nM. The mrna remaining at 10 µM came to 39.5% in series [3] and 38.5% in series [4]. In addition, the half-life at 1 μM in series [5] came to 2.56 h.

As to `O=C(Nc1ccc(F)cc1)Nc1ccc(Cl)c([N+](=O)[O-])c1` [Compound 17, 1-(4-chloro-3-nitrophenyl)-3-(4-fluorophenyl)urea], the ΔTm at 12.5 µM in series [1] stood at 3.69 °C. Besides, the IC50 in series [2] is 5610 nM. For the same molecule, the mrna remaining at 10 µM was 23.6% in series [3] and 30.4% in series [4]. Further, the half-life at 1 μM in series [5] turned out to be 1.54 h.

With `COc1cc(NC(=O)Nc2ccc(Cl)c(C(F)(F)F)c2)ccc1C#N` [Compound 247, 1-(4-chloro-3-(trifluoromethyl)phenyl)-3-(4-cyano-3-methoxyphenyl)urea], the ΔTm at 12.5 µM in series [1] is 2.8 °C. In addition, the IC50 in series [2] came out at 2400 nM. Moreover, the mrna remaining at 10 µM in series [3] is 73%; in series [4], 63%.

In the case of `O=C(Nc1ccc(F)cc1)Nc1ccc(Br)c(C(F)(F)F)c1` [Compound 0005, 1-(4-bromo-3-(trifluoromethyl)phenyl)-3-(4-fluorophenyl)urea], in series [6], the ΔTm at 25 µM came to 5.1 °C and the “effect on melting temperature of HSF1” value is on record as “stabilized the melting temperature of HSF1”. Moreover, the “effect on melting of unrelated protein Hsc70” value in series [7] is “did not affect the melting”.

`N#Cc1ccc(NC(=O)Nc2ccc3c(c2)S(=O)(=O)C=C3)cn1` [Compound 265, 1-(6-cyanopyridin-3-yl)-3-(1,1-dioxidobenzo[b]thiophen-6-yl)urea]: the ΔTm at 12.5 µM in series [1] turned out to be 0.84 °C. Further, the IC50 in series [2] worked out at 9690 nM. In addition, the mrna remaining at 10 µM in series [3] came out at 77%; in series [4] it was 88%.

For the molecule `N#Cc1ccc(NC(=O)Nc2ccc3c(c2)S(=O)(=O)C=C3)cc1` [Compound 244, 1-(4-cyanophenyl)-3-(1,1-dioxidobenzo[b]thiophen-6-yl)urea], the ΔTm at 12.5 µM in series [1] worked out at 2.11 °C. Moreover, the IC50 in series [2] came out at 2190 nM. In addition, in series [5], the half-life at 1 μM turned out to be 2.58 h.

As to `O=C(Nc1ccc(F)cc1)Nc1ccc(Cl)c(S(=O)(=O)C(F)(F)F)c1` [Compound 0054, 1-[4-chloro-3-(trifluoromethylsulfonyl)phenyl]-3-(4-fluorophenyl)urea], the thermal shift (ΔTm) at 25 µM in series [6] is 2.9 °C. In series [8], the “viability of C4-2 compared to BPH-1” value was “preferentially inhibit the viability” and the “potency compared to Compound 0017” value is on record as “increased potency compared to Compound 0017”.

`N#Cc1ccc(NC(=O)Nc2ccc3c(c2)S(=O)(=O)C=C3)cc1C(F)(F)F` [Compound 256, 1-(4-cyano-3-(trifluoromethyl)phenyl)-3-(1,1-dioxidobenzo[b]thiophen-6-yl)urea]: in series [1], the thermal shift (ΔTm) at 12.5 µM amounted to 1.9 °C. In series [2], the IC50 amounted to 3470 nM. Further, the half-life at 1 μM in series [5] turned out to be 1.23 h.

As to `O=C(Nc1ccc(Cl)cc1)Nc1csc([N+](=O)[O-])c1` [Compound 0009], in series [6], the ΔTm at 25 µM was determined as 4.1 °C and the “effect on melting temperature of HSF1” value was “stabilized the melting temperature of HSF1”. In series [7], the “effect on melting of unrelated protein Hsc70” value is recorded as “did not affect the melting”.

Consider `O=C(Nc1ccc(F)cc1)Nc1ccc(Cl)c(S(=O)(=O)C(F)(F)F)c1` [Compound 54, 1-[4-chloro-3-(trifluoromethylsulfonyl)phenyl]-3-(4-fluorophenyl)urea], for which the ΔTm at 12.5 µM in series [1] came out at 2.1 °C. The IC50 in series [2] was determined as 3180 nM. Besides, the figures for the mrna remaining at 10 µM in series [3] and in series [4] were 37% and 23%, respectively.

For the molecule `N#Cc1ccc(NC(=O)Nc2ccc(Cl)c(C(F)(F)F)c2)cc1C(F)(F)F` [Compound 258, 1-(4-chloro-3-(trifluoromethyl)phenyl)-3-(4-cyano-3-(trifluoromethyl)phenyl)urea], in series [1], the ΔTm at 12.5 µM was found to be 2.26 °C. Moreover, the IC50 in series [2] was 1660 nM. Further, the mrna remaining at 10 µM in series [3] is 65%; in series [4], 60%. Also, in series [5], the half-life at 1 μM came to 10.6 h.

With `O=c1c(Nc2ccc(F)cc2)c(Nc2ccc(Cl)c(C(F)(F)F)c2)c1=O` [Compound 0064, 3-[4-chloro-3-(trifluoromethyl)anilino]-4-(4-fluoroanilino)cyclobut-3-ene-1,2-dione], the ΔTm at 25 µM in series [6] came out at 2.3 °C. Further, in series [8], the “viability of C4-2 compared to BPH-1” value is given as “preferentially inhibit the viability” and the “potency compared to Compound 0017” value is recorded as “increased potency compared to Compound 0017”.
